# Counter-ions that a name gives are not always drawn. Like-named read-outs stand apart in the source and are kept apart here.
# Tests used:
# [1] = tested on: Trypanosoma brucei rhodesiense; test: In vitro anti-protozoan data, T. b. r.; assay type: cell-based
# Plasmodium falciparum = test: In vitro anti-protozoan data, P. f.; assay type: cell-based
# Leishmania donovani = test: In vitro anti-protozoan data, L. d.; assay type: cell-based
# [2] = tested on: STIB900 strain of T. b. r.; test: Mouse model of virulent STIB900 strain of T. b. r.; assay type: in vivo
# T. b. r. = test: CNS model in mice (2nd stage human African trypanosomiasis); assay type: in vivo; conditions: through day 120 of an experiment slated for 180 days
# [3] = in vitro, read-out: T. b. r. IC50
# [4] = Trypanosoma brucei, RHODESIENSE, in vitro, read-out: T. b. r. IC50
# [5] = Plasmodium falciparum, in vitro, read-out: P. f. IC50
# [6] = Plasmodium falciparum, in vitro, read-out: IC-50 values versus Plasmodium falciparum (p.f.)
Compound,melting point,"IC50 [1, 4] [µM]",IC50 (Plasmodium falciparum; [5]) [µM],IC50 (Leishmania donovani; Leishmania donovani) [µM],also measured
"CONC(=N)c1ccc(-c2ccc(-c3ccc(C(=N)NOC)cn3)s2)cc1 [Compound 12, N-Methoxy-6-{5-[4-(N-methoxy-carbamimidoyl)-phenyl]-thiophn-2-yl}-nicotinamidine]",–,–,–,–,"IC50 [1, 3]: 9.43 µM; IC50 (Plasmodium falciparum; in vitro, read-out: P. f. IC50): 0.133 µM"
"N=C(NO)c1ccc(-c2ccc(-c3ccc(C(=N)NO)nc3)o2)cc1 [Compound 17, N-Hydroxy-5-{5-[4-(N-hydroxycarbamimidoyl)-phenyl]-furan-2-yl}-pyridine-2-carboxamidine]",276 to 279 °C,200,> 11.7,–,–
"N=C(NO)c1ccc(-c2ccc(-c3ccc(C(=N)NO)cn3)s2)cc1 [Compound 11, N-Hydroxy-6-{5-[4-(N-hydroxycarbamimidoyl)-phenyl]-thiophen-2-yl}-nicotinamidine]",293 to 295 °C (dec.),> 187,> 10.4,> 187,–
"N=C(N)c1ccc(-c2ccc(-c3ccc(C(=N)N)cn3)o2)nc1 [Compound 24, 2,5-Bis[5-amidine-2-pyridyl)furan]",–,–,–,–,"IC50 (Leishmania donovani): 193 µM; IC50 [1, 3]: 0.021 µM; IC50 (Plasmodium falciparum; in vitro, read-out: P. f. IC50): 0.083 µM"
"N=C(NO)c1ccc(-c2ccc(-c3ccc(C(=N)NO)cn3)o2)cc1 [Compound 4, N-Hydroxy-6-{5-[4-(N-hydroxycarbamimidoyl)-phenyl]-furan-2-yl}-nicotinamidine]",–,120,0.0043,> 195,IC50 (Plasmodium falciparum; [6]): < 0.01 µM
"N=C(N)c1ccc(-c2ccc(-c3ccc(C(=N)N)cn3)o2)cc1 [Compound 7, 6-[5-(4-Carbamimidoyl-phenyl)-furan-2-yl]-nicotinamidine]",–,0.007,–,101,"cure of virulent STIB900 strain of T. b. r. in a mouse model [2]: cure; IC50 ([1]; Trypanosoma brucei, RHODESIENSE, read-out: IC-50 values versus Trypanosoma brucei rhodesiense (T.b.r.)): < 0.01 µM; IC50 (Plasmodium falciparum; Plasmodium falciparum, read-out: IC-50 values versus Plasmodium falciparum (p.f.)): < 0.01 µM; IC50 (Plasmodium falciparum; Plasmodium falciparum, read-out: P. f. IC50): 0.0065 µM"
"N=C(NO)c1ccc(Cc2ccc(-c3ccc(C(=N)NO)cn3)o2)cc1 [Compound 36, N-Hydroxy-6-{5-[4-(N-hydroxycarbamimidoyl)benzyl]-furan-2-yl}-nicotinamidine]",214 to 216 °C,–,–,–,–
"Cc1cc(C(=N)NO)ccc1-c1ccc(-c2ccc(C(=N)NO)cn2)o1 [Compound 29, N-Hydroxy-6-{5-[4-(N-hydroxycarbamimidoyl)-2-methyl-phenyl]-furan-2-yl}-nicotinamidine]",196 to 198 °C,–,–,–,–
"CONC(=N)c1ccc(-c2ccc(-c3ccc(C(=N)NOC)nc3)o2)cc1 [Compound 18, N-Methoxy-5-{5-[4-(N-methoxycarbamimidoyl)-phenyl]-furan-2-yl}-pyridin-2-carboxamidine]",142 to 143 °C,6.5,8.5,–,–
"CONC(=N)c1ccc(-c2ccc(-c3ccc(C(=N)NOC)cn3)o2)cc1 [Compound 5, N-Methoxy-6-{5-[4-(N-methoxy-carbamimidoyl)-phenyl]-furan-2-yl}-nicotinamidine]",–,37.1,0.0049,113,parasite free mice in the CNS model (T. b. r.): parasite free mice; cure of virulent STIB900 strain of T. b. r. in a mouse model [2]: cure; IC50 (Plasmodium falciparum; [6]): < 0.01 µM
"N=C(N)c1ccc(-c2ccc(-c3ccc(C(=N)N)nc3)o2)cc1 [Compound 20, 5-[5-(4-Carbamimidoyl-phenyl)-furan-2-yl]-pyridine-2-carboxamidine actate salt]",–,–,–,–,"IC50 (Leishmania donovani): 47 µM; IC50 [1, 3]: 0.0031 µM; IC50 (Plasmodium falciparum; in vitro, read-out: P. f. IC50): 0.0183 µM"
"CC(=O)ONC(=N)c1ccc(-c2ccc(-c3ccc(C(=N)NOC(C)=O)nc3)o2)cc1 [Compound 19, N -Acetoxy-5-{5-[4-(N-Acetoxycarbamimidoyl)-phenyl]-furan-2-yl}-pyridine-2-carboxamidine]",267 to 270 °C,–,–,–,–
"N=C(NO)c1ccc(-c2ccc(-c3ccc(C(=N)NO)cn3)o2)nc1 [Compound 22, 2,5-Bis[5-(N-hydroxycarbamimidoyl)-2-pyridyl)furan]",272 to 274 °C (dec.),55.8,> 0.0102,77,–
"CC(=O)ONC(=N)c1ccc(-c2ccc(-c3ccc(C(=N)NOC(C)=O)cc3C)o2)nc1 [Compound 30, N-Acetoxy-6-{5-[4-(N-acetoxycarbamimidoyl)-2-methyl-phenyl]-furan-2-yl}-nicotinamidine]",203 to 205 °C,–,–,–,–
"CC(=O)ONC(=N)c1ccc(-c2ccc(-c3ccc(C(=N)NOC(C)=O)cn3)o2)nc1 [Compound 23, 2,5-Bis[5-(N-acetoxycarbamimidoyl)-2-pyridyl)furan]",299 to 300 °C,–,–,–,–
"N=C(NO)c1ccc(-c2ccc(C=Cc3ccccc3)o2)nc1 [Compound 33, N-Hydroxy-6-(5-styryl-furan-2-yl)-nicotinamidine]",230 to 231 °C,–,–,–,–
"CONC(=N)c1ccc(-c2ccc(-c3ccc(C(=N)NOC)cn3)o2)nc1 [Compound 27, 2,5-Bis[5-(N-methoxycarbamimidoyl)-2-pyridyl)furan]",–,11.1,0.00177,> 166,IC50 (Plasmodium falciparum; [6]): < 0.01 µM
"CC(=O)ONC(=N)c1ccc(Cc2ccc(-c3ccc(C(=N)NOC(C)=O)cn3)o2)cc1 [Compound 37, N-Acetoxy-6-{5-[4-(N-acetoxycarbamimidoyl)benzyl]-furan-2-yl}-nicotinamidine]",194 to 196 °C,–,–,–,–
